# According to PubChem BioAssay (NCI):
#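 Cells were grown in 96-well plates and exposed to each compound for 48 hours at five concentrations; endpoints were interpolated linearly between bracketing concentrations, or set to the highest concentration if not reached. At the GI50, growth is halved. At the TGI there is no net growth.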 *1 amine or outer side, *2 acyl side, *3 side chain or, on linkers, in order; H or OH if unused. Where a SMILES comes first, the peptide text is derived from it. Bridges are numbered along the chain shown (N, C = ends). [ ]: non-standard residue; d: D form. Adda = CO[C@@H](Cc1ccccc1)[C@@H](C)/C=C(C)/C=C/[C@H](N[*:1])[C@H](C)C(=O)[*:2]; dAsp(3S-Me) = C[C@H](C(=O)[*:3])[C@@H](N[*:1])C(=O)[*:2]; d(γGlu) = O=C(O)[C@@H](CCC(=O)[*:2])N[*:1]; NMeDha = C=C(NC)C(=O)O
# Key:
# Assay in all cases: DTP human tumour cell line panel, 48 h
# COLO 205 colon = test system: COLO 205 colon
# SR leukemia = test system: SR leukemia
# HOP-62 NSCLC = test system: HOP-62 NSCLC
# HCC-2998 colon = test system: HCC-2998 colon
# T-47D breast = test system: T-47D breast
# SK-OV-3 ovarian = test system: SK-OV-3 ovarian
# SK-MEL-5 melanoma = test system: SK-MEL-5 melanoma
# SN12C renal = test system: SN12C renal
# SNB-19 CNS = test system: SNB-19 CNS
# NCI-H23 lung = test system: NCI-H23 lung
# EKVX NSCLC = test system: EKVX NSCLC
# NCI-H226 lung = test system: NCI-H226 lung
# KM12 colon = test system: KM12 colon
# SF-539 CNS = test system: SF-539 CNS
# A549 NSCLC = test system: A549 NSCLC
# SF-268 CNS = test system: SF-268 CNS
# HS 578T breast = test system: HS 578T breast
# 786-0 renal = test system: 786-0 renal
# HOP-92 NSCLC = test system: HOP-92 NSCLC
# HT29 colon = test system: HT29 colon
# OVCAR-5 ovarian = test system: OVCAR-5 ovarian
# CAKI-1 renal = test system: CAKI-1 renal
# RPMI-8226 leukemia = test system: RPMI-8226 leukemia
# K-562 leukemia = test system: K-562 leukemia
# M14 melanoma = test system: M14 melanoma
# OVCAR-3 ovarian = test system: OVCAR-3 ovarian
# MOLT-4 leukemia = test system: MOLT-4 leukemia
# NCI-H460 lung = test system: NCI-H460 lung
# SF-295 CNS = test system: SF-295 CNS
# BT-549 breast = test system: BT-549 breast
# RXF 393 renal = test system: RXF 393 renal
# UACC-62 melanoma = test system: UACC-62 melanoma
# MDA-MB-435 = test system: MDA-MB-435
# SNB-75 CNS = test system: SNB-75 CNS
# PC-3 prostate = test system: PC-3 prostate
# HCT-116 colon = test system: HCT-116 colon
# SK-MEL-2 melanoma = test system: SK-MEL-2 melanoma
# MCF7 breast = test system: MCF7 breast
# DU-145 prostate = test system: DU-145 prostate
# UO-31 renal = test system: UO-31 renal
# TK-10 renal = test system: TK-10 renal
# HCT-15 colon = test system: HCT-15 colon
# MDA-MB-231 breast = test system: MDA-MB-231 breast
# LOX IMVI melanoma = test system: LOX IMVI melanoma
# NCI-H522 lung = test system: NCI-H522 lung
# SW-620 colon = test system: SW-620 colon
# OVCAR-4 ovarian = test system: OVCAR-4 ovarian
# HL-60(TB) leukemia = test system: HL-60(TB) leukemia
# SK-MEL-28 melanoma = test system: SK-MEL-28 melanoma
# IGROV1 ovarian = test system: IGROV1 ovarian
# UACC-257 melanoma = test system: UACC-257 melanoma
# OVCAR-8 ovarian = test system: OVCAR-8 ovarian
# NCI/ADR-RES ovarian = test system: NCI/ADR-RES ovarian
# U251 CNS = test system: U251 CNS
# MALME-3M melanoma = test system: MALME-3M melanoma
# CCRF-CEM leukemia = test system: CCRF-CEM leukemia
# ACHN renal = test system: ACHN renal
smiles,measurement,setting,value
C=C1C(=O)N[C@H](C)C(=O)N[C@@H](CC(C)C)C(=O)N[C@@H](C(=O)O)[C@H](C)C(=O)N[C@@H](CCCN=C(N)N)C(=O)N[C@@H](/C=C/C(C)=C/[C@H](C)[C@H](Cc2ccccc2)OC)[C@H](C)C(=O)N[C@@H](C(=O)O)CCC(=O)N1C (R[Adda][d(γGlu)][NMeDha][dA]L[dAsp(3S-Me)]-OH; lactam N-7),GI50,COLO 205 colon,> 5 µM
same,TGI,COLO 205 colon,> 5 µM
same,GI50,SR leukemia,1.19 µM
same,TGI,SR leukemia,> 5 µM
same,GI50,HOP-62 NSCLC,> 5 µM
same,TGI,HOP-62 NSCLC,> 5 µM
same,GI50,HCC-2998 colon,> 5 µM
same,TGI,HCC-2998 colon,> 5 µM
same,GI50,T-47D breast,> 5 µM
same,TGI,T-47D breast,> 5 µM
same,GI50,SK-OV-3 ovarian,> 5 µM
same,TGI,SK-OV-3 ovarian,> 5 µM
same,GI50,SK-MEL-5 melanoma,> 5 µM
same,TGI,SK-MEL-5 melanoma,> 5 µM
same,GI50,SN12C renal,> 5 µM
same,TGI,SN12C renal,> 5 µM
same,GI50,SNB-19 CNS,> 5 µM
same,TGI,SNB-19 CNS,> 5 µM
same,GI50,NCI-H23 lung,> 5 µM
same,TGI,NCI-H23 lung,> 5 µM
same,GI50,EKVX NSCLC,> 5 µM
same,TGI,EKVX NSCLC,> 5 µM
same,GI50,NCI-H226 lung,> 5 µM
same,TGI,NCI-H226 lung,> 5 µM
same,GI50,KM12 colon,> 5 µM
same,TGI,KM12 colon,> 5 µM
same,GI50,SF-539 CNS,> 5 µM
same,TGI,SF-539 CNS,> 5 µM
same,GI50,A549 NSCLC,4.68 µM
same,TGI,A549 NSCLC,> 5 µM
same,GI50,SF-268 CNS,> 5 µM
same,TGI,SF-268 CNS,> 5 µM
same,GI50,HS 578T breast,> 5 µM
same,TGI,HS 578T breast,> 5 µM
same,GI50,786-0 renal,> 5 µM
same,TGI,786-0 renal,> 5 µM
same,GI50,HOP-92 NSCLC,> 5 µM
same,TGI,HOP-92 NSCLC,> 5 µM
same,GI50,HT29 colon,> 5 µM
same,TGI,HT29 colon,> 5 µM
same,GI50,OVCAR-5 ovarian,> 5 µM
same,TGI,OVCAR-5 ovarian,> 5 µM
same,GI50,CAKI-1 renal,> 5 µM
same,TGI,CAKI-1 renal,> 5 µM
same,GI50,RPMI-8226 leukemia,> 5 µM
same,TGI,RPMI-8226 leukemia,> 5 µM
same,GI50,K-562 leukemia,> 5 µM
same,TGI,K-562 leukemia,> 5 µM
same,GI50,M14 melanoma,> 5 µM
same,TGI,M14 melanoma,> 5 µM
same,GI50,OVCAR-3 ovarian,> 5 µM
same,TGI,OVCAR-3 ovarian,> 5 µM
same,GI50,MOLT-4 leukemia,> 5 µM
same,TGI,MOLT-4 leukemia,> 5 µM
same,GI50,NCI-H460 lung,> 5 µM
same,TGI,NCI-H460 lung,> 5 µM
same,GI50,SF-295 CNS,> 5 µM
same,TGI,SF-295 CNS,> 5 µM
same,GI50,BT-549 breast,> 5 µM
same,TGI,BT-549 breast,> 5 µM
same,GI50,RXF 393 renal,> 5 µM
same,TGI,RXF 393 renal,> 5 µM
same,GI50,UACC-62 melanoma,> 5 µM
same,TGI,UACC-62 melanoma,> 5 µM
same,GI50,MDA-MB-435,> 5 µM
same,TGI,MDA-MB-435,> 5 µM
same,GI50,SNB-75 CNS,> 5 µM
same,TGI,SNB-75 CNS,> 5 µM
same,GI50,PC-3 prostate,> 5 µM
same,TGI,PC-3 prostate,> 5 µM
same,GI50,HCT-116 colon,> 5 µM
same,TGI,HCT-116 colon,> 5 µM
same,GI50,SK-MEL-2 melanoma,> 5 µM
same,TGI,SK-MEL-2 melanoma,> 5 µM
same,GI50,MCF7 breast,> 5 µM
same,TGI,MCF7 breast,> 5 µM
same,GI50,DU-145 prostate,> 5 µM
same,TGI,DU-145 prostate,> 5 µM
same,GI50,UO-31 renal,> 5 µM
same,TGI,UO-31 renal,> 5 µM
same,GI50,TK-10 renal,> 5 µM
same,TGI,TK-10 renal,> 5 µM
same,GI50,HCT-15 colon,> 5 µM
same,TGI,HCT-15 colon,> 5 µM
same,GI50,MDA-MB-231 breast,> 5 µM
same,TGI,MDA-MB-231 breast,> 5 µM
same,GI50,LOX IMVI melanoma,> 5 µM
same,TGI,LOX IMVI melanoma,> 5 µM
same,GI50,NCI-H522 lung,4.94 µM
same,TGI,NCI-H522 lung,> 5 µM
same,GI50,SW-620 colon,> 5 µM
same,TGI,SW-620 colon,> 5 µM
same,GI50,OVCAR-4 ovarian,> 5 µM
same,TGI,OVCAR-4 ovarian,> 5 µM
same,GI50,HL-60(TB) leukemia,> 5 µM
same,TGI,HL-60(TB) leukemia,> 5 µM
same,GI50,SK-MEL-28 melanoma,> 5 µM
same,TGI,SK-MEL-28 melanoma,> 5 µM
same,GI50,IGROV1 ovarian,0.305 µM
same,TGI,IGROV1 ovarian,> 5 µM
same,GI50,UACC-257 melanoma,> 5 µM
same,TGI,UACC-257 melanoma,> 5 µM
same,GI50,OVCAR-8 ovarian,> 5 µM
same,TGI,OVCAR-8 ovarian,> 5 µM
same,GI50,NCI/ADR-RES ovarian,> 5 µM
same,TGI,NCI/ADR-RES ovarian,> 5 µM
N#C/C(=C\c1ccccc1)c1nc(-c2cc3ccccc3oc2=O)cs1,TGI,COLO 205 colon,> 100 µM
same,TGI,SR leukemia,> 100 µM
same,TGI,HOP-62 NSCLC,> 100 µM
same,TGI,HCC-2998 colon,> 100 µM
same,TGI,T-47D breast,> 100 µM
same,TGI,SK-OV-3 ovarian,> 100 µM
same,TGI,SK-MEL-5 melanoma,> 100 µM
same,TGI,SN12C renal,> 100 µM
same,TGI,SNB-19 CNS,> 100 µM
same,TGI,EKVX NSCLC,> 100 µM
same,TGI,U251 CNS,> 100 µM
same,TGI,NCI-H226 lung,> 100 µM
same,TGI,MALME-3M melanoma,> 100 µM
same,TGI,KM12 colon,> 100 µM
same,TGI,SF-539 CNS,> 100 µM
same,TGI,A549 NSCLC,> 100 µM
same,TGI,CCRF-CEM leukemia,> 100 µM
same,TGI,SF-268 CNS,> 100 µM
same,TGI,HS 578T breast,82.1 µM
same,TGI,786-0 renal,> 100 µM
same,TGI,HOP-92 NSCLC,> 100 µM
same,TGI,HT29 colon,> 100 µM
same,TGI,OVCAR-5 ovarian,> 100 µM
same,TGI,CAKI-1 renal,> 100 µM
same,TGI,RPMI-8226 leukemia,> 100 µM
same,TGI,K-562 leukemia,> 100 µM
same,TGI,M14 melanoma,> 100 µM
same,TGI,MOLT-4 leukemia,> 100 µM
same,TGI,NCI-H460 lung,> 100 µM
same,TGI,SF-295 CNS,> 100 µM
same,TGI,BT-549 breast,77.1 µM
same,TGI,RXF 393 renal,> 100 µM
same,TGI,UACC-62 melanoma,> 100 µM
same,TGI,MDA-MB-435,> 100 µM
same,TGI,SNB-75 CNS,> 100 µM
same,TGI,PC-3 prostate,> 100 µM
same,TGI,HCT-116 colon,> 100 µM
same,TGI,SK-MEL-2 melanoma,> 100 µM
same,TGI,MCF7 breast,> 100 µM
same,TGI,DU-145 prostate,> 100 µM
same,TGI,UO-31 renal,> 100 µM
same,TGI,TK-10 renal,> 100 µM
same,TGI,HCT-15 colon,> 100 µM
same,TGI,MDA-MB-231 breast,> 100 µM
same,TGI,LOX IMVI melanoma,> 100 µM
same,TGI,NCI-H522 lung,> 100 µM
same,TGI,SW-620 colon,> 100 µM
same,TGI,ACHN renal,> 100 µM
same,TGI,OVCAR-4 ovarian,> 100 µM
same,TGI,HL-60(TB) leukemia,> 100 µM
same,TGI,SK-MEL-28 melanoma,> 100 µM
same,TGI,IGROV1 ovarian,> 100 µM
same,TGI,UACC-257 melanoma,> 100 µM
same,TGI,OVCAR-8 ovarian,> 100 µM
same,TGI,NCI/ADR-RES ovarian,> 100 µM
